# Source: patent US20110015067A1, “Herbicidal Compositions Comprising Pyroxasulfone” (BASF SE, priority 2008, published 2011)
# Experiments:
# Format in all cases: in vivo
# [1] = tested on: CHEAL (Chenopodium album); assay: post-emergence greenhouse test; conditions: 15 g ai/ha
# From the text: (§1) For the post-emergence treatment, the test plants were first grown to a height of 3 to 20 cm, depending on the plant habit, and only then treated. Here, the herbicidal compositions were suspended or emulsified in water as distribution medium and sprayed using finely distributing nozzles.
# (§2) The respective herbicides A and/or safener were formulated as 10% by weight strength suspension concentrate and introduced to the spray liquor with the amount of solvent system used for applying the active compound. Herbicide B and/or safener were used as commercially available formulations and introduced to the spray liquor with the amount of solvent system used for applying the active compound. In the examples, the solvent used was water.
# (§3) The test period extended over 20 days. During this time, the plants were tended, and their response to the treatments with active compound was evaluated.
# (§4) In the following experiments, the herbicidal activity for the individual herbicide compounds (solo application) and of the mixture was assessed 8 days after treatment (8 DAT) and/or 20 days after treatment (20 DAT).
# (§5) The evaluation for the damage caused by the chemical compositions was carried out using a scale from 0 to 100%, compared to the untreated control plants. Here, 0 means no damage and 100 means complete destruction of the plants.
# [2] = tested on: ALOMY (Alopecurus myosuroides); assay: post-emergence greenhouse test
# From the text: as §1, §2, §3, §4, §5
# [3] = tested on: COMBE (Commelina benghalensis); assay: pre-emergence greenhouse test; conditions: for observed activity in % destruction: pre-emergence
# From the text: (§6) For the pre-emergence treatment, directly after sowing the active compounds, which had been suspended or emulsified in water, were applied by means of finely distributed nozzles. The containers were irrigated gently to promote germination and growth and subsequently covered with transparent plastic hoods until plant had rooted. This cover caused uniform germination of the tests plants, unless this was adversely affected by active compounds.
# as §2, §3, §4, §5
# [4] = tested on: AMBEL (Ambrosia artemisifolia); assay: pre-emergence greenhouse test; conditions: for observed activity in % destruction: pre-emergence, 15 g ai/ha
# From the text: as §6, §2, §3, §4, §5
# [5] = tested on: PANDI (Panicum dichotomiflorum); assay: pre-emergence greenhouse test; conditions: PANDI pre-emergence 7.5 g ai/ha
# From the text: as §6, §2, §3, §4, §5
# [6] = tested on: AMARE (Amaranthus retroflexus); assay: pre-emergence greenhouse test
# From the text: as §6, §2, §3, §4, §5
# SETFA (Setaria faberii) = assay: pre-emergence greenhouse test
# From the text: as §6, §2, §3, §4, §5
# SOLNI (Solanum nigrum) = assay: pre-emergence greenhouse test; conditions: for observed activity in % destruction: pre-emergence, 7.5 g ai/ha
# From the text: as §6, §2, §3, §4, §5
# PHBPU (Ipomoea purpurea) = assay: pre-emergence greenhouse test
# From the text: as §6, §2, §3, §4, §5
# [7] = tested on: BRAPL (Brachiaria plantaginea); assay: pre-emergence greenhouse test; conditions: BRAPL pre-emergence 7.5 g ai/ha
# From the text: as §6, §2, §3, §4, §5
# [8] = tested on: ECHCG (Echinochloa crus-galli); assay: pre-emergence greenhouse test
# From the text: as §6, §2, §3, §4, §5
# ERBVI = assay: pre-emergence greenhouse test
# From the text: as §6, §2, §3, §4, §5
# [9] = tested on: ALOMY (Alopecurus myosuroides); assay: pre-emergence greenhouse test; conditions: for observed activity in % destruction: pre-emergence, 7.5 g ai/ha
# From the text: as §6, §2, §3, §4, §5
# SETVI (Setaria viridis) = assay: pre-emergence greenhouse test
# From the text: as §6, §2, §3, §4, §5
# [10] = tested on: PANMI (Panicum milliaceum); assay: pre-emergence greenhouse test
# From the text: as §6, §2, §3, §4, §5
# [11] = COMBE pre-emergence 3.75 g ai/ha
# [12] = COMBE pre-emergence 7.5 g ai/ha
# [13] = AMARE pre-emergence 3.75 g ai/ha
# [14] = AMARE pre-emergence 7.5 g ai/ha
# [15] = SOLNI pre-emergence 7.5 g ai/ha
# [16] = ECHCG pre-emergence 7.5 g ai/ha
# [17] = ALOMY pre-emergence 3.75 g ai/ha
# [18] = ALOMY pre-emergence 7.5 g ai/ha
# [19] = SETVI pre-emergence 3.75 g ai/ha
smiles,measurement,setting,value
COCc1cnc(C2=NC(C)(C(C)C)C(=O)N2)c(C(=O)O)c1 (stereo not shown) [imazamox],observed activity in % destruction,[1]; 8 DAT,0%
same,observed activity in % destruction,[1]; 20 DAT,0%
same,observed activity in % destruction,"[2]; 3.75 g ai/ha, 8 DAT",25%
same,observed activity in % destruction,"[2]; 3.75 g ai/ha, 20 DAT",30%
same,observed activity in % destruction,"[2]; 7.5 g ai/ha, 8 DAT",35%
same,observed activity in % destruction,"[2]; 7.5 g ai/ha, 20 DAT",35%
same,observed % destruction 8 DAT,[3]; [11],20%
same,observed % destruction 20 DAT,[3]; [11],30%
same,observed % destruction 8 DAT,[3]; [12],40%
same,observed % destruction 20 DAT,[3]; [12],35%
same,observed % destruction 8 DAT,[3]; COMBE pre-emergence 15 g ai/ha,50%
same,observed % destruction 20 DAT,[3]; COMBE pre-emergence 15 g ai/ha,75%
same,observed activity in % destruction,"[3]; 3.75 g ai/ha, 8 DAT",20%
same,observed activity in % destruction,"[3]; 3.75 g ai/ha, 20 DAT",30%
same,observed activity in % destruction,"[3]; 7.5 g ai/ha, 8 DAT",40%
same,observed activity in % destruction,"[3]; 7.5 g ai/ha, 20 DAT",35%
same,observed % destruction 8 DAT,[4]; AMBEL pre-emergence 15 g ai/ha,50%
same,observed % destruction 20 DAT,[4]; AMBEL pre-emergence 15 g ai/ha,80%
same,observed activity in % destruction,[4]; 8 DAT,50%
same,observed activity in % destruction,[4]; 20 DAT,80%
same,observed % destruction 8 DAT,[5],20%
same,observed % destruction 20 DAT,[5],75%
same,observed % destruction 8 DAT,[6]; [13],20%
same,observed % destruction 20 DAT,[6]; [13],30%
same,observed % destruction 8 DAT,[6]; [14],55%
same,observed % destruction 20 DAT,[6]; [14],80%
same,observed % destruction 8 DAT,[6]; AMARE pre-emergence 15 g ai/ha,65%
same,observed % destruction 20 DAT,[6]; AMARE pre-emergence 15 g ai/ha,95%
same,observed % destruction 20 DAT,SETFA (Setaria faberii); SETFA pre-emergence 3.75 g ai/ha,30%
same,observed % destruction 20 DAT,SETFA (Setaria faberii); SETFA pre-emergence 7.5 g ai/ha,60%
same,observed % destruction 20 DAT,SETFA (Setaria faberii); SETFA pre-emergence 15 g ai/ha,85%
same,observed % destruction 20 DAT,SOLNI (Solanum nigrum); SOLNI pre-emergence 3.75 g ai/ha,20%
same,observed % destruction 8 DAT,SOLNI (Solanum nigrum); [15],30%
same,observed % destruction 20 DAT,SOLNI (Solanum nigrum); [15],80%
same,observed % destruction 20 DAT,SOLNI (Solanum nigrum); SOLNI pre-emergence 15 g ai/ha,85%
same,observed activity in % destruction,SOLNI (Solanum nigrum); 8 DAT,30%
same,observed activity in % destruction,SOLNI (Solanum nigrum); 20 DAT,80%
same,observed % destruction 20 DAT,PHBPU (Ipomoea purpurea); PHBPU pre-emergence 7.5 g ai/ha,20%
same,observed % destruction 20 DAT,PHBPU (Ipomoea purpurea); PHBPU pre-emergence 15 g ai/ha,70%
same,observed % destruction 8 DAT,[7],0%
same,observed % destruction 20 DAT,[7],45%
same,observed % destruction 20 DAT,[8]; ECHCG pre-emergence 3.75 g ai/ha,0%
same,observed % destruction 8 DAT,[8]; [16],20%
same,observed % destruction 20 DAT,[8]; [16],10%
same,observed % destruction 8 DAT,[8]; ECHCG pre-emergence 15 g ai/ha,60%
same,observed % destruction 20 DAT,[8]; ECHCG pre-emergence 15 g ai/ha,75%
same,observed % destruction 20 DAT,ERBVI; ERBVI pre-emergence 3.75 g ai/ha,0%
same,observed % destruction 20 DAT,ERBVI; ERBVI pre-emergence 7.5 g ai/ha,0%
same,observed % destruction 20 DAT,ERBVI; ERBVI pre-emergence 15 g ai/ha,20%
same,observed % destruction 8 DAT,[9]; [17],20%
same,observed % destruction 20 DAT,[9]; [17],40%
same,observed % destruction 8 DAT,[9]; [18],30%
same,observed % destruction 20 DAT,[9]; [18],40%
same,observed % destruction 8 DAT,[9]; ALOMY pre-emergence 15 g ai/ha,50%
same,observed % destruction 20 DAT,[9]; ALOMY pre-emergence 15 g ai/ha,80%
same,observed activity in % destruction,[9]; 8 DAT,30%
same,observed activity in % destruction,[9]; 20 DAT,40%
same,observed % destruction 8 DAT,SETVI (Setaria viridis); [19],0%
same,observed % destruction 20 DAT,SETVI (Setaria viridis); [19],20%
same,observed % destruction 20 DAT,SETVI (Setaria viridis); SETVI pre-emergence 7.5 g ai/ha,90%
same,observed % destruction 8 DAT,SETVI (Setaria viridis); SETVI pre-emergence 15 g ai/ha,85%
same,observed % destruction 20 DAT,SETVI (Setaria viridis); SETVI pre-emergence 15 g ai/ha,95%
same,observed % destruction 20 DAT,[10]; PANMI pre-emergence 3.75 g ai/ha,20%
same,observed % destruction 20 DAT,[10]; PANMI pre-emergence 7.5 g ai/ha,30%
